In paper PMC9066185 (RSC Advances, 2019):

Biological target: xanthine oxidase from cow's milk (XO) (Bos taurus, UniProt P80457)
Assay: uric acid formation at […] nm
Assay type: biochemical

Sequence of xanthine oxidase from cow's milk (XO) (P80457 2-1332): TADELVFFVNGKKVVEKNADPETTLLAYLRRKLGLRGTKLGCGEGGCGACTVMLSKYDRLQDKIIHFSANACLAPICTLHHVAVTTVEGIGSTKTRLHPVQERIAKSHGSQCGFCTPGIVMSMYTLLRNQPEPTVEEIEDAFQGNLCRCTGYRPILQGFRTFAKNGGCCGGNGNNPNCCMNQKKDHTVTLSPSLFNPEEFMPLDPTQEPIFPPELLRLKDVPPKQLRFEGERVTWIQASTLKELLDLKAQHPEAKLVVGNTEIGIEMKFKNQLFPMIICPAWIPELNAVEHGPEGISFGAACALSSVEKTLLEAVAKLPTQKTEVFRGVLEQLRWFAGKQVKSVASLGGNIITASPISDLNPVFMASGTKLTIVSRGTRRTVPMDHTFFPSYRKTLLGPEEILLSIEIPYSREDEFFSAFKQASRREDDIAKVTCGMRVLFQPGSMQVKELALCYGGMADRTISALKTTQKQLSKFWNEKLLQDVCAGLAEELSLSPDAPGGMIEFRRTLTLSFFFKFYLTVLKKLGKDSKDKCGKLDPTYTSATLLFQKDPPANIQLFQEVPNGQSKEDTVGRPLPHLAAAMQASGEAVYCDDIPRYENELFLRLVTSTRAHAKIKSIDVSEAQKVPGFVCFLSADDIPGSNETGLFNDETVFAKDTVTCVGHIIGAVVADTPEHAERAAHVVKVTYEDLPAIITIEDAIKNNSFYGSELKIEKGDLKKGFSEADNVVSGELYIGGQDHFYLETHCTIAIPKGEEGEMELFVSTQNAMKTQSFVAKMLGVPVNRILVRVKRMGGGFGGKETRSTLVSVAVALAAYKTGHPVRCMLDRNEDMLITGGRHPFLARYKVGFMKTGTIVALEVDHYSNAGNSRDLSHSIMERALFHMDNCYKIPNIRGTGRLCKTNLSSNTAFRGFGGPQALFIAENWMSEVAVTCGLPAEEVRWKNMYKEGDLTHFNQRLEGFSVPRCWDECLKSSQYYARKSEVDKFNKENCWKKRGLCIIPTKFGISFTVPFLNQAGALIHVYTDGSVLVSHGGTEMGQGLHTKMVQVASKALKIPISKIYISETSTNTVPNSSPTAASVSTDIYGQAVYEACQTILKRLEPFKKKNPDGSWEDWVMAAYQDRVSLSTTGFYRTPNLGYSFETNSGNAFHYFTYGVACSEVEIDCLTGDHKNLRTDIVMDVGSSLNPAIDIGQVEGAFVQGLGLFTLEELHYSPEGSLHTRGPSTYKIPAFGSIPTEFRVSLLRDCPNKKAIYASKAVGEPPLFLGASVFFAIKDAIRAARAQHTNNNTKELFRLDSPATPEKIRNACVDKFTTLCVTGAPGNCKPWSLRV

IC50: 92.5 µM
Compound: Oc1cc(O)c2c(c1)O[C@H](c1ccc(O)c(O)c1)[C@H](O)[C@H]2c1c(O)cc(O)c2c1O[C@H](c1ccc(O)c(O)c1)[C@@H](O)C2 [procyanidin B1, (−)-epicatechin-(4β,8)-(+)-catechin]
